The values that follow come from ChEMBL document CHEMBL2331380, “Evaluation of potential Myt1 kinase inhibitors by TR-FRET based binding assay” (Eur J Med Chem, 2013).

Experiment [1] can be described thus: Binding affinity to human full-length His-tagged Myt1 kinase expressed in HEK293 cells at 30 ug/ml by TR-FRET based binding assay. A general note: In TR-FRET formats the signal depends on donor and acceptor labels being close together.
Experiment [2] in a line: Binding affinity to human full-length His-tagged Myt1 kinase expressed in HEK293 cells at 3 ug/ml by TR-FRET based binding assay.

As for `CCCCCCCCCCCCCCCC(=O)NC[C@H]1O[C@@H](OC[C@@H](COC(=O)CCCCCCCCCCCCCCC)OC(=O)CCCCCCCCCCCCCCC)[C@H](O)[C@@H](O)[C@H]1O`, the Activity in experiment [1] and in experiment [2] was less than 5% each time.
As to `CCCCCCCCCCCCCCCC(=O)NC[C@H]1O[C@@H](OC[C@@H](COC(=O)CCCCCCCCCCCCCCC)OC(=O)CCCCCCCCCCCCCCC)[C@@H](O)[C@@H](O)[C@@H]1O`, the results for the Activity in experiment [1] and in experiment [2] were 7.53% and less than 5%, respectively.
With `CCCCCCCCCCCCCCCC(=O)NC[C@H]1O[C@@H](OC[C@@H](COC(=O)CCCCCCCCCCCCCCC)OC(=O)CCCCCCCCCCCCCCC)[C@H](O)[C@@H](O)[C@@H]1O`, the Activity in experiment [1] and in experiment [2] was less than 5% in each case.
On to `CCCCCCCCCCCCCCCC(=O)NC[C@H]1O[C@H](OC[C@@H](COC(=O)CCCCCCCCCCCCCCC)OC(=O)CCCCCCCCCCCCCCC)[C@H](O)[C@@H](O)[C@H]1O`, for which the Activity in experiment [1] and in experiment [2] was less than 5% throughout.
In the case of `CCCCCCCC(=O)NC[C@H]1O[C@@H](OC[C@@H](COC(=O)CCCCCCC)OC(=O)CCCCCCC)[C@H](O)[C@@H](O)[C@@H]1O`, the Activity in experiment [1] and in experiment [2] was less than 5% in each case.
As to `CCCCCCCCCCCCCCCC(=O)NC[C@H]1O[C@H](OC[C@@H](COC(=O)CCCCCCCCCCCCCCC)OC(=O)CCCCCCCCCCCCCCC)[C@H](O)[C@@H](O)[C@@H]1O`, the Activity in experiment [1] and in experiment [2] was less than 5% each time.
Regarding `CCCCCCCCCCCCCCCC(=O)NC[C@H]1O[C@H](OC[C@@H](COC(=O)CCCCCCCCCCCCCCC)OC(=O)CCCCCCCCCCCCCCC)[C@@H](O)[C@@H](O)[C@@H]1O`, the Activity in experiment [1] and in experiment [2] was less than 5% in each case.
